Several values for one entry are separate records, joined by “and”; a condition that tells them apart may be missing. Equal entries are not always repeated.
First: Cc1cc(O)cc(C)c1Cl [4-Chloro-3,5-dimethylphenol]
Second: Cc1cc(Br)cc(Cl)c1N [4-bromo-2-chloro-6-methylaniline]
The melting point of the first is higher: 115 °C for the first, 39 °C for the second.

Going from `CC1=CC(=O)CC(C)(C)C1=O` [2,6,6-trimethyl-2-cyclohexene-1,4-dione] to `Cc1cccc([N+](=O)[O-])c1C` [3-nitro-1,2-dimethylbenzene], the melting point falls from 20 °C to 9 °C.

Going from `CC(=O)/N=c1\sc(C(C)=O)nn1-c1ccc(F)cc1` to `CC(=O)c1ccc(N2CCNCC2)cc1` [4'-(1-piperazinyl)acetophenone], the melting point falls from 158 °C to 96 °C.

First: O=C[C@H](O)[C@@H](O)[C@@H](O)CO (racemic) [dl-arabinose]
Second: O=C(O)C(O)C(O)C(=O)O (stereo not given) [Tartaric acid]
The melting point of the first is lower: 159 °C for the first, 210 °C for the second.

Going from `Cc1cc(NS(=O)(=O)c2ccc(N)cc2)nc(C)n1` [sulfisomidine] to `Nc1ccc(S(=O)(=O)Nc2ccccn2)cc1` [Sulfapyridine], the melting point falls from 243 °C to 192 °C.

Going from `Nc1ccc(CO)cc1` [4-aminobenzyl alcohol] to `Cc1ccc(N)cc1` [p-toluidine], the melting point falls from 61 °C to 44 °C.

Compared with `CCCCCOC(=O)c1ccc(O)cc1` [N-pentyl 4-hydroxybenzoate], `CCCCOC(=O)c1ccc(O)cc1` [N-butyl 4-hydroxybenzoate] is higher in melting point: 38 °C for the first, 69 °C for the second.

Compared with `NCCNCCN` [N-(2-Aminoethyl)ethane-1,2-diamine], `CCCCCCC(C)=O` [2-octanone] is higher in melting point: -35 °C for the first, -16 °C for the second.

First: Cc1ccc(S(=O)(=O)CCCl)cc1 [2-chloroethyl p-tolyl sulfone]
Second: Cc1ccc(Br)cc1 [4-bromotoluene]
The melting point of the first is higher: 79 °C for the first, 28 °C for the second.

Compared with `COC(=O)c1sccc1O` [methyl 3-hydroxythiophene-2-carboxylate], `COC(=O)c1ccc(N)cc1` [methyl 4-aminobenzoate] is higher in melting point: 46 °C for the first, 114 °C for the second.

Going from `Cc1cccc(C(=O)O)n1` [6-methylpyridine-2-carboxylic acid] to `CCn1cc(C(=O)O)c(=O)c2ccc(C)nc21` [nalidixic acid], the melting point rises from 129 °C to 230 °C.

Going from `C[C@]12CC[C@H](O)CC1=CC[C@@H]1[C@@H]2CC[C@]2(C)C(=O)CC[C@@H]12` [3-Beta-Hydroxy-5-Androsten-17-One] to `CC12CCC3C(CCC4CC(=O)CCC43C)C1CCC2O` (stereo not given) [17-hydroxyandrostan-3-one], the melting point falls from 140 °C to 121 °C.

Compared with `NC(=S)N1CCCCC1` [piperidine-1-thiocarboxamide], `Cc1ccc(S(=O)(=O)NC(=O)NN2CCCCCC2)cc1` [Tolazamide] is higher in melting point: 128 °C for the first, 172 °C for the second.

First: OB(O)c1ccc(F)c(Cl)c1 [3-chloro-4-fluorobenzeneboronic acid]
Second: Oc1ccccc1F [2-fluorophenol]
The melting point of the first is higher: 258 °C for the first, 15 °C for the second.

First: CC(C)c1ccc(/C=C/[N+](=O)[O-])cc1 [4-isopropyl-beta-nitrostyrene]
Second: CC(C)Cc1ccc(C(C)C(=O)O)cc1 (stereo not given) [ibuprofen]
The melting point of the first is lower: 37 °C for the first, 76 °C for the second.

Going from `OCc1ccc(Cl)c(Cl)c1` [3,4-dichlorobenzyl alcohol] to `Clc1ccc(Cl)cc1` [1,4-dichlorobenzene], the melting point rises from 38 °C to 54 °C.

Going from `CCCCCCCC(C)O` (stereo not given) [2-nonanol] to `CCCCCCCCCC(=O)O` [decanoic_acid], the melting point rises from -35 °C to 32 °C.

Compared with `C/C(=C\c1ccccc1)c1ccccc1` [(e)-alpha-methylstilbene], `O=C(Cc1ccccc1)Cc1ccccc1` [1,3-diphenylacetone] is lower in melting point: 81 °C for the first, 33 °C for the second.

First: O=C(Nc1ccccn1)C(C(F)(F)F)C(F)(F)F
Second: O=C(O)c1cc(/N=N/c2ccc(S(=O)(=O)Nc3ccccn3)cc2)ccc1O
The melting point of the first is lower: 109 °C for the first, 249 °C for the second.

Compared with `CCOC1Oc2ccc(C)cc2C(=O)/C1=C\Nc1nc2ccc(Cl)cc2s1` (stereo not given), `C/C(CCc1oc2ccc(Cl)cc2c1-c1ccc(C)o1)=N\O` is lower in melting point: 147 °C for the first, 115 °C for the second.

Going from `Cc1cc(/C=C2\SC(=Nc3ccccc3)N=C2O)c(C)n1-c1ccccn1` [OSM-S-51] to `c1ccc(-c2cccc(-c3ccccn3)n2)nc1` [2,2':6',2''-terpyridine], the melting point falls from 277 °C to 91 °C.

Compared with `CN(C)c1ccc(N)cc1` [N,N-dimethyl-p-phenylenediamine], `CCCCOC(=O)c1ccc(N)cc1` [butamben] is higher in melting point: 36 °C for the first, 58 °C for the second.

Going from `CC(CN1c2ccccc2Sc2ccccc21)N(C)C` (stereo not given) [promethazine] to `Cc1nc2ccccc2c(=O)n1-c1ccccc1Cl` [mecloqualone], the melting point rises from 60 °C to 126 °C.

Going from `Nc1ccc(S(=O)(=O)c2ccc(N)cc2)cc1` [4,4'-diaminodiphenyl sulfone] to `Cc1ccc(Cc2ccccc2)cc1` [4-benzyltoluene], the melting point falls from 177 °C to 5 °C.

Going from `N#CCCO` [3-hydroxypropionitrile] to `OCC(F)F` [2,2-difluoroethanol], the melting point rises from -46 °C to -28 °C.

First: O=C(O)c1ccccc1O [Salicylic acid]
Second: O=C(O)c1ccc(O)cc1 [4-Hydroxybenzoic acid]
The melting point of the first is lower: 159 °C for the first, 216 °C for the second.

Going from `CC(C)(C)OC(=O)N[C@@H](CO)Cc1ccccc1` [N-boc-D-phenylalaninol] to `O=C(O)CCc1ccccc1` [3-phenylpropionic acid], the melting point falls from 95 °C to 49 °C.

First: CCCCCCCCCCCCCCCC(C)C [2-methylheptadecane]
Second: CCCCCCCCCCCCCCCCCCO [1-octadecanol]
The melting point of the first is lower: 6 °C for the first, 61 °C for the second.

Going from `[O-][n+]1cccc(F)c1` [3-fluoropyridine n-oxide] to `Brc1ccccc1` [Bromobenzene], the melting point falls from 67 °C to -31 °C.

Compared with `CC(C)(C)c1ccc(O)c(N)c1` [2-amino-4-tert-butylphenol], `NC(=O)c1cccc(O)c1` [m-hydroxybenzamide] is higher in melting point: 163 °C for the first, 170 °C for the second.

Compared with `CC=O` [Acetaldehyde], `C=CC(=O)OC` [Methyl acrylate] is higher in melting point: -124 °C for the first, -75 °C for the second.

Compared with `CC(=O)[C@H]1C[C@@H](CC(=O)O)C1(C)C` [[(1S,3S)-3-Acetyl-2,2-dimethylcyclobutyl]acetic acid], `N[C@@H](CC(=O)O)C(=O)O` [L-Aspartic Acid] is higher in melting point: 67.8 °C for the first, 230 °C for the second.

Compared with `NC(=O)CI` [2-Iodoacetamide], `CCOC(=O)/C=C/N(C)C` [ethyl 3-(dimethylamino)acrylate] is lower in melting point: 94 °C for the first, 18 °C for the second.

Compared with `O=c1c2ccccc2sc2ccccc12` [thioxanthen-9-one], `O=C(O)Cc1cccc2ccccc12` [Naphthalen-1-Yl-Acetic Acid] is lower in melting point: 212 °C for the first, 135 °C for the second.

Going from `C=COC(C)=O` [Vinyl acetate] to `CC(C)(C)C(=O)O` [2,2-dimethylpropanoic_acid], the melting point rises from -100 °C to 36 °C.

Compared with `O=C\1c3c(O/C(=C/1)c2ccc(O)c(O)c2)cc(O)cc3O` [luteolin], `O=[N+]([O-])c1cccc(O)c1` [3-nitrophenol] is lower in melting point: 330 °C for the first, 97 °C for the second.

First: CC(COc1ccccc1)NC(C)C(O)c1ccc(O)cc1 (stereo not given) [Isolait]
Second: C=Cc1ccc(-c2ccccc2)cc1 [p-phenylstyrene]
The melting point of the first is lower: 103 °C for the first, 119 °C for the second.

First: O=S(=O)(Cl)c1ccc(Br)cc1C(F)(F)F [4-bromo-2-(trifluoromethyl)benzenesulfonyl chloride]
Second: FC(F)(F)c1cc(-c2cccs2)nc2cc(-c3cccs3)nn12
The melting point of the first is lower: 56 °C for the first, 159 °C for the second.

Going from `COC(=O)c1cc(Cl)ccc1[N+](=O)[O-]` [methyl 5-chloro-2-nitrobenzoate] to `O=[N+]([O-])c1cccnc1Cl` [2-chloro-3-nitropyridine], the melting point rises from 49 °C to 101 °C.

First: CSCC[C@H](NC(=O)OCC1c2ccccc2-c2ccccc21)C(=O)O [N-fmoc-L-methionine]
Second: N#CCS(=O)(=O)c1ccccc1 [phenylsulfonylacetonitrile]
The melting point of the first is higher: 134 °C for the first, 112 °C for the second.

Compared with `CC=1CCC[C@](C)(C)C=1/C=CC(C)=CC=CC(C)=CC(=O)O` [Retinoic acid], `C[C@@H]1C[C@@H]([C@H](O)CC2CC(=O)NC(=O)C2)C(=O)[C@@H](C)C1` is lower in melting point: 190 °C for the first, 120 °C for the second.

Going from `NC(=O)N[C@@H]1O[C@H](CO)[C@@H](O)[C@H](O)[C@H]1O` [N-Carbamoyl-beta-D-glucopyranosylamine] to `O=C(O)CCCCCCCCCCC(=O)O` [Dodecanedioic acid], the melting point falls from 207 °C to 129 °C.

Compared with `C=C(Cl)CCl` [2,3-dichloro-1-propene], `O=[N+]([O-])c1ccccc1CCl` [2-nitrobenzyl_chloride] is higher in melting point: -83 °C for the first, 48 °C for the second.

Going from `NC(=O)c1ccc([N+](=O)[O-])cc1` [4-Nitrobenzamide] to `O=C(O)c1cccc([N+](=O)[O-])c1` [3-Nitrobenzoic acid], the melting point falls from 202 °C to 142 °C.

Compared with `CCC(C)I` (stereo not given) [2-Iodobutane], `CC(C)[N+](=O)[O-]` [2-Nitropropane] is higher in melting point: -104 °C for the first, -93 °C for the second.

Going from `CC(C)CC(C)(C)C` [2,2,4-trimethylpentane] to `BrCC(Br)CBr` [1,2,3-tribromopropane], the melting point rises from -107 °C to 17 °C.

First: Nc1ncc(Br)cc1[N+](=O)[O-] [2-amino-5-bromo-3-nitropyridine]
Second: Cc1cc(C)nc(N)n1 [2-amino-4,6-dimethylpyrimidine]
The melting point of the first is higher: 208 °C for the first, 153 °C for the second.

Compared with `CCCCCCCCCc1ccc(O)cc1` [4-n-nonylphenol], `CCCCCOc1ccc(/N=N/c2ccc(CCCC)cc2)cc1` [(E)-1-(4-butylphenyl)-2-[4-(pentyloxy)phenyl]diazene] is lower in melting point: 45 °C for the first, 42 °C for the second.

First: Cn1c(/C(C#N)=C/c2ccc(F)cc2)nc2ccccc21
Second: C[SiH](C)c1ccccc1 [dimethylphenylsilane]
The melting point of the first is higher: 134 °C for the first, -124 °C for the second.

Compared with `[SiH3][SiH3]` [Disilane], `O=C2/N=C\1/N(c3cc(c(cc3/N=C/1C(=O)N2)C)C)CC(O)C(O)C(O)CO` (stereo not given) [riboflavin] is higher in melting point: -133 °C for the first, 280 °C for the second.

Going from `Clc1ccccc1` [Chlorobenzene] to `Fc1ccc(F)c(F)c1F` [1,2,3,4-tetrafluorobenzene], the melting point rises from -45 °C to -42 °C.

For `CCCCCCCCCCC=O` [undecanal], the melting point was 0 °C and -2 °C.
In the case of `O=C(O)c1ccccc1` [benzoic acid], the melting point is reported as 122 °C (5×) and 123 °C (2×).
For `O=C(O)C1CC1` [cyclopropanecarboxylic acid], the melting point was 18 °C and 18.5 °C and 16.8 °C.
